Results on five compounds are retold here after patent publication US4734416A, “Pharmaceutically useful carbostyril derivatives” (Otsuka Pharmaceutical Co., Ltd., priority 1978, dated 1988).

Counter-ions that a name gives are not always drawn.

Usually pA2 stands for the negative logarithm of the molar antagonist concentration that doubles the agonist concentration needed for the same response. For orientation: LD50 means the dose expected to kill half of the subjects tested. A lower LD50 goes with a more toxic substance. What is called ED50 is the midpoint of the dose-response relation.

The conditions of series [1]: antihistamic effect, literature value; cited from earlier work.
Series [2] deals with T1, enucleated ileum of a guinea pig (Cavia porcellus, UniProt P31389).
T1 construct: the tissue of ileum is cut to a length of 2.5 to 3.0 cm and suspended in an organ bath; from tissue; host or cells: isolated ileum from the ileocecal region of male guinea pig
T1 sequence (P31389 whole entry): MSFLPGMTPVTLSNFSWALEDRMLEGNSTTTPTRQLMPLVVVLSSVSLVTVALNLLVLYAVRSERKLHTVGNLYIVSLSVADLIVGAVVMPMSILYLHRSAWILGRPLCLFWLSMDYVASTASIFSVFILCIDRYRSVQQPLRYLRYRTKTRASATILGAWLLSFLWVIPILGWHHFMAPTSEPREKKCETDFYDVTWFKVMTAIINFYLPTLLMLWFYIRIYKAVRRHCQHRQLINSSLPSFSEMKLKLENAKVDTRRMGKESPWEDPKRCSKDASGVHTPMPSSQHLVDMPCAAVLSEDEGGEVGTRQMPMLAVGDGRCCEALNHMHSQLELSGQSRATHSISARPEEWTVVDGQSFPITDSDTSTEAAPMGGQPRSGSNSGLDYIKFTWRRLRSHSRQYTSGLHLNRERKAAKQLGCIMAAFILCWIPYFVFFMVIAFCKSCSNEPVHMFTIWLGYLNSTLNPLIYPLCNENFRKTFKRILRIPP
In words: Antihistamine activity test in vitro (enucleated guinea pig ileum, histamine retraction, pA2 by Van Rossam method). As to conditions: 10^-6 g/ml test compound, 5 minutes before histamine, 36° C. On the procedure: As to the test method for determining antihistamine activity of a compound in vitro, a method of using an enucleated ileum of a guinea pig is generally accepted.
A male guinea pig having 300 to 500 g body weight is killed by blood letting. An ileum having a length of 15 cm being enculeated from the ileocecal region is dipped into Tyrode's solution (which is prepared from […], 0.2 g of KCl, 0.2 g of CaCl2, 1.0 g of glucose, 1.0 g of NaHCO3, 0.065 g of NaHPO4.2H2 O and 0.2135 g of MgCl2.6H2 O to make 1000 ml in total volume by adding water). Then the tissue of ileum is cut to a length of 2.5 to 3.0 cm and suspended in an organ bath filled with 30 ml of Tyrode's solution. The organ bath is kept at a temperature of 36° C. and a mixed gas consisting of 5% of CO2 and 95% of O2 is blown into the bath. 10 Minutes after the blowing, 10^-6 M of histamine is added to the bath to examine the sensitivity of the tissue and a reaction curve (control) with respect to the dosage of histamine is obtained. After the dosage of histamine-reaction curve (control) becomes constant, 10^-6 g/ml of a compound to be tested is added to the bath and further histamine is added 5 minutes later to obtain a dosage-reaction curve. Retraction of the ileum is recorded on a pen-recorder through an isotonic transducer [TD-112S manufactured by Nihon Koden]. Antihistamine activity of the test compound is determined as pA2 value by the "Van Rossam" method [J. M. Van Rossam; Arch. Inst. Pharmacodyn., 143, 299 (1963)] wherein the maximum retraction of ileum caused by histamine shown in the control curve is 100%.

A short description of another series: in vivo. Conditions: mouse. As for the experimental part:
Mice of ddy-strain having 20-22 g of body weight are used. One test group consists of 10 mice.
Oral administration: Compound to be tested is suspended in 1% Gummi Arabicum physiological NaCl aqueous solution.
Intravenuous administration: Compound to be tested is dissolved in 50% propyleneglycol aqueous solution.

Series [3] in a line: Analgetic activity (acetic acid writhing). As to conditions: Mus musculus, read-out: ED50 (analgetic activity). The format is in vivo, mouse (male, ddy-strain). As for the experimental part:
Male mice of ddy-strain having 15-23 g of body weight are used. One test group consists of 10 mice. The compound to be tested is administered orally by procedures similar to the method mentioned in (II). Fifty minutes after the administration, 0.1 ml of 0.6% acetic acid aqueous solution/10 g body weight is injected intraperitoneally. In case of the mice administered orally with the reference compound (Haloperidol), the injection is made 110 minutes after the administration. The number of writhings shown after 10 minutes is counted for 10 minutes and the ED50 value of respective compounds is calculated in comparison with the number of writhings shown by control group. [Reference: R. Koster, M. Anderson and E. I. Debeer: Fed. Proc., 18, 412, (1959)]
Background: Writhing tests count abdominal constrictions after an irritant is injected.

Series [4] in a line: Halothane anesthesia increasing activity (righting reflex). Format: in vivo, mouse (male, ddy-strain). As to conditions: oral; for Time (minutes) between introduction of anesthesia and waking: 8 mg/kg, 1 hour before 4% Halothane. As for the experimental part:
Male mice of ddy-strain having about 20 g body weight are used. One test group consists of 10 mice. An aqueous Gummi Arabicum suspension of test compound (80 mg of a compound to be tested and 1 g of Gummi Arabicum/100 ml of physiological NaCl solution) is administered orally to each mouse at the dosage of 8 mg of test compound/kg body. One hour after the administration, each mouse is placed in a gas respiration chamber (13×13×24 cm) and oxygen gas containing 4% of Halothane [2-bromo-2-chloro-1,1,1-trifluoroethane] is blown into the chamber at the velocity of 2 l/min for 3 minutes. A mouse anaesthetized is taken out from the chamber and the time between the introduction of anesthesia to waking is measured by righting reflex as the index. To mice of the control group, 1% Gummi Arabicum aqueous physiological solution is orally administered at the dosage of 0.1 ml/10 g body. [Reference: M. J. Turnbull and J. W. Watkins: Br. J. Pharmac., 58, 27-35 (1976)]
Same procedures as mentioned in (II)-(A) are employed, except that the amount of test compound to be orally administered is changed in 4 steps at the dosage of 0.5 mg/kg, 1 mg/kg, 2 mg/kg and 4 mg/kg respectively to measure the relationship between the dosage and degree of strength of anesthesia increasing activity.

Series [5] in a line: Activity for inhibiting fighting behavior of mouse isolated singly for a long period of time. The format is in vivo, mouse (male, ddy-strain). As to conditions: positive if fighting no longer than 5 seconds in a minute, range in parentheses, read-out: ED50 (inhibition of fighting behavior). As for the experimental part:
Individual male mice of ddy-strain having 15 to 20 g of body weight are breeded separately in respective cages for 1 month. One test group consists of 10 pairs of mice. The pairs of mice are selected so that when one mouse is taken into the home cage of another, the two mice fight together continuously for over 30 seconds. ED50 values are calculated by administering the respective test compounds to each test groups of mice. Activity for inhibiting fighting behavior of the test compound is determined as positive in case the administered mice only continue the fighting for no longer than 5 seconds in a minute. When the mice continue the fighting over 5 seconds they are forced to separate for the purpose of reducing the number of injured mice. [Reference: C. Y. Yen, R. L. Stanger and N. Millman: Arch. Int. Pharmacodyn., 123, 179 (1959)]

The nature of series [6]: Hexabarbital sleep increasing activity (righting reflex). The format is in vivo, mouse (male, ddy-strain). As to conditions: oral, Hexabarbital Na 70 mg/kg i.p. On the procedure:
Male mice of ddy-strain having 20 to 25 g body weight are starved for 24 hours. One test group consists of 10 mice. An aqueous Gummi Arabicum suspension of test compound (0.05 g of test compound and 1 g of Gummi Arabicum/100 ml of physiological NaCl solution) is administered orally at the dosage mentioned in the Table 4. One hour after the administration 0.7% of Hexabarbitol.Na-salt is intraperitonerally administered at the dosage of 70 mg/kg body weight. The time between the introduction of sleep to waking is measured by righting reflex as the index. [Reference: A. M. Hjort, De E. J. Beer and D. W. Fassett; J. Pharmac., Exptl.

[7] abbreviates: 50 min, oral, 50 minutes before acetic acid i.p., range in parentheses.

On to `CC(C)(C)NCC(O)COc1cccc2c1CCC(=O)N2` (stereo not shown) [5-(3-tert-butylamino-2-hydroxy)propoxy-3,4-dihydrocarbostyril hydrochloride], for which, in series [1], the pA2 is recorded as 5.02.

In series [2], `O=C1CCc2c(cccc2OCCCN2CCCN(c3ccccc3)CC2)N1` [Compound 31, 5-[3-(4-Phenylhomopiperazinyl)propoxy]-3,4-dihydrocarbostyril] had a Kb of 0.263 nM. For the same compound, the LD50 in “in vivo” (iv, female mice) was 248 mg/kg; in the series “in vivo” (iv, male mice) it was 256 mg/kg; in the series “in vivo” (po, female mice), 923 mg/kg; in the series “in vivo” (po, male mice), 870 mg/kg. The ED50 in series [3] (setting [7]) was 1.92 mg/kg. Further, in series [4], the “Time (minutes) between introduction of anesthesia and waking” value (“Time (minutes) between introduction” for short) is 8.2 ± 3.9 min.

As for `O=c1ccc2ccc(OCCCN3CCN(c4ccccc4)CC3)cc2[nH]1` [Compound 37, 7-[3-(4-Phenylpiperazinyl)propoxy]carbostyril], the ED50 in series [5] was determined as 0.78 mg/kg; in series [3] (setting [7]), 1.52 mg/kg. The Kb in series [2] is 0.295 nM. Moreover, in series [4], the “Time (minutes) between introduction” value is 13.1 ± 6.0 min.

For `O=C1CCc2ccc(OCCCN3CCN(c4ccccc4)CC3)cc2N1` [Compound 6, 7-[3-(4-Phenylpiperazinyl)propoxy]-3,4-dihydrocarbostyril dihydrochloride], the “Sleep time (min.) [Mean ± SD]” value in series [6] (0.5 mg/kg) is 43.76 ± 6.09 min; in series [6] (1.0 mg/kg), 51.24 ± 11.75 min; in series [6] (2.0 mg/kg), 54.11 ± 7.80 min; in series [6] (4 mg/kg) it was 65.13 ± 11.59 min; in series [6] (8 mg/kg) it was 85.83 ± 12.24 min. Besides, the values for the ED50 in series [5] and in series [3] (setting [7]) were 0.7 mg/kg and 2.31 mg/kg, respectively. Besides, in series [2], the Kb was 0.457 nM. For the same compound, the LD50 in the series “in vivo” (iv, female mice) is 250 mg/kg; in “in vivo” (iv, male mice) it was 240 mg/kg; in “in vivo” (po, female mice), 890 mg/kg; in “in vivo” (po, male mice) it was 920 mg/kg. For the same compound, the “Anesthesia increasing activity” value amounted to 8.2 ± 2.6 min in series [4] (0.5 mg/kg), 10.3 ± 3.3 min in series [4] (1 mg/kg), 12.1 ± 4.2 min in series [4] (2 mg/kg) and 16.6 ± 5.1 min in series [4] (4 mg/kg). Further, the “Time (minutes) between introduction” value in series [4] was determined as 16.8 ± 6.2 min.

For `O=C(CCCN1CCC(O)(c2ccc(Cl)cc2)CC1)c1ccc(F)cc1` [Haloperidol, reference compound], the entries for the “Sleep time (min.) [Mean ± SD]” value in series [6] (4 mg/kg), in series [6] (8 mg/kg) and in series [6] (16 mg/kg) were 43.01 ± 19.22 min, 46.83 ± 13.94 min and 66.81 ± 14.32 min, respectively. Besides, the ED50 in series [3] (po, 110 min) was determined as 2.31 mg/kg. Further, the “Anesthesia increasing activity” value in series [4] (0.5 mg/kg) was 5.3 ± 2.9 min; in series [4] (1 mg/kg), 5.1 ± 2.5 min; in series [4] (2 mg/kg) it was 9.3 ± 3.1 min; in series [4] (4 mg/kg), 10.2 ± 3.7 min.
